# Where “and” joins values, the source holds several entries; their conditions need not be identical. Equal values may be shown once.
# Columns and labels:
# [1] = molecular target: T1, Phosphoethanolamine N-methyltransferase 2 (Caenorhabditis elegans, UniProt Q22993); test: Radiochemical Assay; details: pH 8; 25 °C
# Source text: (§1) A radiochemical assay was used to measure enzymatic activity.
# [2] = molecular target: T2, Phosphoethanolamine N-methyltransferase 1 (Caenorhabditis elegans, UniProt Q86NB3); test: Radiochemical Assay; details: pH 8; 25 °C
# T2 sequence (Q86NB3 whole entry): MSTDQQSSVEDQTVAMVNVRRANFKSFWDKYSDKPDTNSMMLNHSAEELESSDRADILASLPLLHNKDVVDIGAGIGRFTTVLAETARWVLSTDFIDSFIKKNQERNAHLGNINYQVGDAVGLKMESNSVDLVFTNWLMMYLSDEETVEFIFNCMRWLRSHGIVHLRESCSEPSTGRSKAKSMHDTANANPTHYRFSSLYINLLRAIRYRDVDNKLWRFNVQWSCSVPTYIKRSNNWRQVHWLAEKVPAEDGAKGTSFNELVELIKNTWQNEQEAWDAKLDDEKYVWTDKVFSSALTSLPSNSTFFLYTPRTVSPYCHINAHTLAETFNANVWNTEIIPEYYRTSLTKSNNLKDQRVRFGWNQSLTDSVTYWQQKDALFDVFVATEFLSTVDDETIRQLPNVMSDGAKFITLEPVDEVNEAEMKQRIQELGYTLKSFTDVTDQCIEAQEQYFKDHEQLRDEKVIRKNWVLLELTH
# Source text: as §1
# [3] = molecular target: T2, Phosphoethanolamine N-methyltransferase 1; test: Calorimetric (ITC) Assay; details: pH 7.5
# Method: (§2) For standard ITC analysis of ligand binding, proteins were dialyzed overnight in 25 mm Hepes (pH 7.5), 100 mm NaCl, 5 mm -mercaptoethanol, and 5% glycerol at 4 °C. Ligands (i.e. AdoMet, AdoCys, pEA, and pCho) were prepared in the same buffer. AdoMet and AdoCys concentrations were determined spectrophotometrically (A260 nm; = 15,400 m 1 cm 1) (19). ITC experiments were performed using a VP-ITC calorimeter (Microcal, Inc.). Injections (10 ul) of ligand were added to a sample solution containing protein using a computer-controlled 250-ul microsyringe at intervals of 5 6 min.
# [4] = molecular target: T1, Phosphoethanolamine N-methyltransferase 2; test: Calorimetric (ITC) Assay; details: pH 7.5
# Method: as §2
# T1 sequence (Q22993 whole entry): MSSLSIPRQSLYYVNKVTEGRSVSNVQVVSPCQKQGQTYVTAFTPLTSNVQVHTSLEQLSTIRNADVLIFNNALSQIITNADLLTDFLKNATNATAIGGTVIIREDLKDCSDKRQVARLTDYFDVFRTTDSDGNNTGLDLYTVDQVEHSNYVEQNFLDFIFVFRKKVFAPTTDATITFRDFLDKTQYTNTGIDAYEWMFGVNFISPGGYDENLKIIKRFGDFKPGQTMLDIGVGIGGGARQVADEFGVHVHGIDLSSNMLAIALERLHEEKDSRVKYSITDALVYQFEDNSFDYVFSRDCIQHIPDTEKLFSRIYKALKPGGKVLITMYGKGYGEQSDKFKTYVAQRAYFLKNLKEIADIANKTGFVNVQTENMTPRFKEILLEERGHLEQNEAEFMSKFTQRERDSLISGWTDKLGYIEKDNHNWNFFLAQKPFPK
SMILES,IC50 [1] [µM],IC50 [2] [µM],Kd ([3]; 4 °C),Kd ([3]; 5 °C) [µM],Kd ([3]; 10 °C) [µM],Kd ([3]; 15 °C) [µM],Kd ([3]; 20 °C) [µM],Kd ([3]; 25 °C) [µM],further results
Nc1c2c(nc3ccccc13)CCCC2,3500,23400,–,–,–,–,–,–,–
"C[S+](CC[C@H](N)C(=O)[O-])C[C@H]1O[C@@H](n2cnc3c(N)ncnc32)[C@H](O)[C@@H]1O (stereo partly drawn) [(2S)-2-amino-4-({[(2S,3S,4R,5R)-5-(6-amino-9H-purin-9-yl)-3,4-dihydroxyoxolan-2-yl]methyl}(methyl)sulfanylium)butanoate]",–,–,47.2 µM and 19.1 µM and 10.7 µM and 5.8 µM,6.1,8.2,11.4,16.6,26.7,–
Nc1ncnc2c1ncn2[C@H]1O[C@@H](CSCC[C@@H](N)C(=O)O)[C@H](O)[C@@H]1O [AdoCys],–,–,2.9 µM and 2.2 µM and 1.3 µM and 0.9 µM,0.7,0.8,1.1,1.6,2.5,Kd ([4]; 4 °C): 8.6 µM and 6 µM and 9.3 µM and 6.1 µM; Kd ([4]; 5 °C): 2 µM; Kd ([4]; 10 °C): 2.5 µM; Kd ([4]; 15 °C): 3 µM; Kd ([4]; 20 °C): 4.2 µM; Kd ([4]; 25 °C): 5.4 µM
CCN(CC)Cc1cc(Nc2ccnc3cc(Cl)ccc23)ccc1O [Amodiaquin],3100,3400,–,–,–,–,–,–,–
Nc1ncnc2c1ncn2[C@@H]1O[C@H](C[C@@H](N)CC[C@H](N)C(=O)O)[C@@H](O)[C@H]1O [Sinefungin],91.5,33.8,–,–,–,–,–,–,–
CCCCCCCCCCCCCCCCOP(=O)([O-])OCC[N+](C)(C)C [n-hexadecylphosphocholine],12.5,125,–,–,–,–,–,–,–
